Results from the supplement of paper PMC10307832.

Assays:
Test in all cases: relative viability (nuclei count vs DMSO), 5 days (fraction); higher = more cells survive
XMD13-2 + Linsitinib = compound: C1CC1C(=O)NC2=NNC3=C2C=CC(=C3)C4=CC(=CC=C4)C(=O)NC5CC5 [XMD13-2] + C[C@]1(O)C[C@@H](c2nc(-c3ccc4ccc(-c5ccccc5)nc4c3)c3c(N)nccn32)C1 [Linsitinib] (partner 1 µM)
Procedure, shortened: (§1)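 Dosing by pin tool came one day after lung cancer cell lines were seeded in 1536-well plates, using either one drug or a fixed anchor-drug dose plus five library-drug doses (not always all listed) in √10 steps. After 5 days, nuclei were counted on 4× images. Relative viability is treated-well nuclei count divided by vehicle-well nuclei count, and values are medians of duplicate plates.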

XMD13-2 + Olaparib = compound: C1CC1C(=O)NC2=NNC3=C2C=CC(=C3)C4=CC(=CC=C4)C(=O)NC5CC5 [XMD13-2] + O=C(c1cc(Cc2n[nH]c(=O)c3ccccc23)ccc1F)N1CCN(C(=O)C2CC2)CC1 [Olaparib] (partner 8 µM)
Procedure, shortened: as §1

XMD13-2 + Decitabine = compound: C1CC1C(=O)NC2=NNC3=C2C=CC(=C3)C4=CC(=CC=C4)C(=O)NC5CC5 [XMD13-2] + Nc1ncn([C@H]2C[C@H](O)[C@@H](CO)O2)c(=O)n1 [Decitabine] (partner 2 µM)
Procedure, shortened: as §1

XMD13-2 + Lapatinib = compound: C1CC1C(=O)NC2=NNC3=C2C=CC(=C3)C4=CC(=CC=C4)C(=O)NC5CC5 [XMD13-2] + CS(=O)(=O)CCNCc1ccc(-c2ccc3ncnc(Nc4ccc(OCc5cccc(F)c5)c(Cl)c4)c3c2)o1 [Lapatinib] (partner 2 µM)
Procedure, shortened: as §1

Cell Line	relative viability (XMD13-2 + Linsitinib; first compound 0.05 µM)	relative viability (XMD13-2 + Linsitinib; first compound 0.1581 µM)	relative viability (XMD13-2 + Linsitinib; first compound 0.5 µM)	relative viability (XMD13-2 + Linsitinib; first compound 1.581 µM)	relative viability (XMD13-2 + Linsitinib; first compound 5 µM)	relative viability (XMD13-2 + Olaparib; first compound 0.05 µM)	relative viability (XMD13-2 + Olaparib; first compound 0.1581 µM)	relative viability (XMD13-2 + Olaparib; first compound 0.5 µM)	relative viability (XMD13-2 + Olaparib; first compound 1.581 µM)	relative viability (XMD13-2 + Olaparib; first compound 5 µM)	relative viability (XMD13-2 + Decitabine; first compound 0.05 µM)	relative viability (XMD13-2 + Decitabine; first compound 0.1581 µM)	relative viability (XMD13-2 + Decitabine; first compound 0.5 µM)	relative viability (XMD13-2 + Decitabine; first compound 1.581 µM)	relative viability (XMD13-2 + Decitabine; first compound 5 µM)	relative viability (XMD13-2 + Lapatinib; first compound 0.05 µM)	relative viability (XMD13-2 + Lapatinib; first compound 0.1581 µM)	relative viability (XMD13-2 + Lapatinib; first compound 0.5 µM)	relative viability (XMD13-2 + Lapatinib; first compound 1.581 µM)	relative viability (XMD13-2 + Lapatinib; first compound 5 µM)
201T	1.06	1.08	1.01	0.957	0.908	0.851	0.866	0.856	0.811	0.876	0.861	0.839	0.905	0.86	0.902	1.06	1.13	1.02	1.07	1.08
A549	0.856	0.513	0.579	0.677	0.674	0.415	0.185	0.453	0.358	0.437	0.307	0.233	0.289	0.247	0.24	1.2	0.974	0.938	0.811	0.891
A-427	1.11	1.14	1.18	1.09	1	0.814	0.688	0.728		0.485	0.574	0.553	0.612		0.503	1.1	1.01	1.1	1.01	1.05
ABC-1	0.918	0.874	1.04	0.704	0.86	0.925	0.869	1.08		0.688	1.13	1.33	1.24		1.11	1.42	1.29	1.12	1.2	1.23
BEN	1.07	0.884	0.963	0.866	0.898	0.925	0.94	0.941	1.12	0.995	0.803	0.705	0.719	0.648	0.705	0.954	0.829	0.802	0.597	0.621
CAL-12T	0.802	0.764	0.837	0.68	0.843	0.694	0.799	0.708	0.695	0.697						0.627		0.795	0.537	0.46
COR-L23	1.01	0.917	1.02	0.848	0.872	0.327	0.36	0.33	0.336	0.387	0.438	0.399	0.513	0.458	0.376	1.26	1.09	0.929	1.08	0.91
COR-L 105	1.04	1.13	1	0.875	0.797	0.606	0.678	0.656	0.564	0.759	0.747	0.717	0.755	0.66	0.638	0.395	0.319	0.426	0.346	0.27
Calu-6	0.949	0.996		0.912	0.913	0.615	0.586		0.605	0.512						1.18	0.93	1.11	0.983	0.736
ChaGo-K-1						0.439	0.436	0.438	0.387	0.358	0.521	0.53	0.528	0.511	0.496					
EBC-1	0.889	0.966	1.08	0.874	0.766	0.768	0.78	0.837	0.545	0.277						0.199	0.22	0.215	0.185	0.214
EKVX	1.16	0.911	0.992	0.871	1.05	0.984	0.871	0.907		0.907	0.395	0.32	0.419		0.307	0.205	0.173	0.177	0.192	0.196
EMC-BAC-2	0.912	0.82	0.841	0.848	0.689	0.575	0.526	0.499	0.465	0.439	1.09	0.967	0.997		0.878	1.03	0.866	0.92	0.879	0.532
EPLC-272H	1.21	1.08	1.25	1.06	0.284	0.976	0.854	0.748	0.528	0.172	0.363	0.391	0.485	0.339	0.314	1.09	0.897	1.01	0.817	0.911
H3255	1.12	1	0.946	0.97	0.94	0.635	0.634	0.584	0.519	0.558	0.749	0.72	0.532		0.603	0.444	0.223	0.297	0.199	0.201
HARA	0.934	0.931	0.944	0.972	1.07	0.76	1.11	0.831	0.987	0.643	0.654	0.558	0.584	0.613	0.492	0.825	0.886	0.699	0.711	0.538
HCC-15	0.936	0.869	0.903	0.947	0.599	0.706	0.66	0.785	0.669	0.661	0.768	0.652	0.725	0.598	0.627	0.983	0.761	0.918	0.801	0.519
HCC-44	0.683	0.694	0.697	0.704	0.773	1.01	0.983	0.974	1.03	0.986	0.981	0.835	1.01	0.992	0.963	1.01	1.12	1.08	0.957	0.771
HCC-78	0.696	0.587	0.603	0.548	0.461	0.895	0.781	0.812	0.667	0.733	0.691	0.737	0.664	0.613	0.61	1.2	0.775	0.782	0.616	0.521

Cell Line	relative viability (XMD13-2 + Linsitinib; first compound 0.05 µM)	relative viability (XMD13-2 + Linsitinib; first compound 0.1581 µM)	relative viability (XMD13-2 + Linsitinib; first compound 0.5 µM)	relative viability (XMD13-2 + Linsitinib; first compound 1.581 µM)	relative viability (XMD13-2 + Linsitinib; first compound 5 µM)	relative viability (XMD13-2 + Olaparib; first compound 0.05 µM)	relative viability (XMD13-2 + Olaparib; first compound 0.1581 µM)	relative viability (XMD13-2 + Olaparib; first compound 0.5 µM)	relative viability (XMD13-2 + Olaparib; first compound 1.581 µM)	relative viability (XMD13-2 + Olaparib; first compound 5 µM)	relative viability (XMD13-2 + Decitabine; first compound 0.05 µM)	relative viability (XMD13-2 + Decitabine; first compound 0.1581 µM)	relative viability (XMD13-2 + Decitabine; first compound 0.5 µM)	relative viability (XMD13-2 + Decitabine; first compound 1.581 µM)	relative viability (XMD13-2 + Decitabine; first compound 5 µM)	relative viability (XMD13-2 + Lapatinib; first compound 0.05 µM)	relative viability (XMD13-2 + Lapatinib; first compound 0.1581 µM)	relative viability (XMD13-2 + Lapatinib; first compound 0.5 µM)	relative viability (XMD13-2 + Lapatinib; first compound 1.581 µM)	relative viability (XMD13-2 + Lapatinib; first compound 5 µM)
HCC-366	0.809	0.54	0.749	0.647	0.736	0.448	0.328	0.444	0.355	0.358	0.332	0.34	0.33	0.341	0.378	1.3	1.04	1.07	1.09	1.12
HCC-827	0.873	0.9	0.874	0.9	0.863	0.722	0.661	0.575	0.609	0.421	0.317	0.365	0.281	0.719	0.343	0.19	0.2	0.172	0.243	0.2
HOP-62	1.03	0.971	1	1.09	0.913	0.307	0.697	0.391		0.489	0.233	0.204	0.195	0.203	0.199	1.17	1.02	1.09	1.25	1.07
IA-LM	0.627	0.56	0.582	0.683	0.713	0.832	0.903	0.787	0.707	0.635						0.812	0.869	0.751	0.682	0.47
LC-2-ad	0.927	0.924	0.826	0.769	0.831	0.684	0.716	0.681	0.701	0.718	0.797	0.728	0.828	0.79	0.712	1.01	1.06	0.971	0.885	0.855
LCLC-97TM1	0.206	0.157	0.187	0.176	0.178	0.498	0.507	0.336	0.263	0.173	0.241	0.23	0.202	0.168	0.195	1.19	0.693	1.23	0.75	0.825
LCLC-103H	1	1.1	1.25	1.18	1.14	0.764	0.797	0.776	0.846	0.805	0.712	0.748	0.765	0.719	0.756					
LK-2	0.715	0.518	0.554	0.676	0.422	0.831	0.911	0.807	0.642	0.668	0.378	0.297	0.274	0.281	0.329	0.977	0.912	1.12	1.03	0.743
NCI-H441	0.771	0.415	0.558	0.64	0.398	0.545	0.578	0.534	0.477	0.495	0.23	0.248	0.237	0.231	0.242					
NCI-H522						0.632	0.7	0.618	0.473	0.65	0.615	0.654	0.633	0.546	0.721					
NCI-H1299	0.982	1.03	1.15	0.997	1.03	0.953	0.991	0.959	0.972	1						0.908	1.03	0.997	0.958	0.939
NCI-H1563	1.22	1.27	1.16	1.12	1.31											1.06	0.88	0.967	0.839	1.08
NCI-H1648						0.983		0.841	0.762	0.509	0.507		0.515	0.475	0.579					
NCI-H1650						0.78	0.903	0.809	0.795	0.827	0.363	0.457	0.413	0.409	0.52	0.865	0.674	0.809	0.677	0.227
NCI-H1703	0.637	1.23	0.805		0.74	0.503	0.417	0.38		0.372						1.38	1.4	1.17	0.842	0.72
NCI-H2170						0.663	0.554	0.631	0.581	0.601	0.507	0.466	0.506	0.459	0.43	0.307	0.272	0.278	0.284	0.266
NCI-H2228	0.735	0.83	0.768	0.546	0.622	0.834	0.517	0.623	0.554	0.747						1.42	1.19	1.05	1.23	0.426
NCI-H2342						0.424	0.383	0.386	0.403	0.463	0.724	0.841	0.778	0.716	0.807					
SW 900						0.772	0.853	0.922	0.753	0.806	0.51	0.454	0.447	0.439	0.447					
